According to PubChem BioAssay (NCI):
“And” between values parts separate entries of the source, which are not always exact repeats. Equal values may be shown once.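 Cells were grown in 96-well plates and exposed to each compound for 48 hours at five concentrations; endpoints were interpolated linearly between bracketing concentrations, or set to the highest concentration if not reached. Here, GI50 denotes the concentration required for 50% inhibition of growth. At the TGI there is no net growth.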 Where a SMILES comes first, the peptide text is derived from it. [ ]: non-standard residue; d: D form. The star is where a group is joined. ξ: configuration not given here. ξD = NC(CC(=O)O)C(=O)O; Boc = CC(C)(C)OC(=O)*; Aib = CC(C)(N)C(=O)O; OBn = c1ccc(CO*)cc1

Experiments:
Assay in all cases: NCI tumour cell line growth inhibition, 48 h
A549 NSCLC = tested on: A549 NSCLC
EKVX NSCLC = tested on: EKVX NSCLC
HOP-62 NSCLC = tested on: HOP-62 NSCLC
HS 578T breast = tested on: HS 578T breast
IGROV1 ovarian = tested on: IGROV1 ovarian
LOX IMVI melanoma = tested on: LOX IMVI melanoma
M14 melanoma = tested on: M14 melanoma
MCF7 breast = tested on: MCF7 breast
MDA-MB-231 breast = tested on: MDA-MB-231 breast
MDA-N = tested on: MDA-N
NCI-H522 lung = tested on: NCI-H522 lung
PC-3 prostate = tested on: PC-3 prostate
RPMI-8226 leukemia = tested on: RPMI-8226 leukemia
RXF 393 renal = tested on: RXF 393 renal
SF-539 CNS = tested on: SF-539 CNS
SK-MEL-5 melanoma = tested on: SK-MEL-5 melanoma
SK-OV-3 ovarian = tested on: SK-OV-3 ovarian
SNB-75 CNS = tested on: SNB-75 CNS
T-47D breast = tested on: T-47D breast

Structure (SMILES) | TGI (A549 NSCLC) | TGI (EKVX NSCLC) | TGI (HOP-62 NSCLC) | TGI (HS 578T breast) | TGI (IGROV1 ovarian) | TGI (LOX IMVI melanoma) | TGI (M14 melanoma) | TGI (MCF7 breast) | TGI (MDA-MB-231 breast) | TGI (MDA-N) | TGI (NCI-H522 lung) | TGI (PC-3 prostate) | TGI (RPMI-8226 leukemia) | TGI (RXF 393 renal) | TGI (SF-539 CNS) | TGI (SK-MEL-5 melanoma) | TGI (SK-OV-3 ovarian) | TGI (SNB-75 CNS) | TGI (T-47D breast) | GI50 (RPMI-8226 leukemia)
CC(C)(C)OC(=O)NC(CC(=O)OCc1ccccc1)C(=O)NC(C)(C)C(N)=O (centres undefined) (Boc-[ξD](OBn)-[Aib]-NH2) | > 100 µM | > 100 µM | > 100 µM | > 100 µM | > 100 µM | > 100 µM | > 100 µM | > 100 µM | > 100 µM | > 100 µM | > 100 µM | > 100 µM | > 100 µM | > 100 µM | > 100 µM | > 100 µM | > 100 µM | > 100 µM | > 100 µM | 
CCCC(=O)OCC1OC(n2cc(F)c(=O)[nH]c2=O)C(F)C1O (centres undefined) | > 100 µM | > 100 µM | > 100 µM | > 100 µM | > 100 µM | > 100 µM | > 100 µM | > 100 µM | > 100 µM | > 100 µM | > 100 µM | > 100 µM | > 100 µM | > 100 µM | > 31.6 µM | > 100 µM | > 100 µM | > 100 µM | > 100 µM | 
O=C(/C=C/c1ccc([N+](=O)[O-])cc1)N1CCN(CCOC(c2ccc(F)cc2)c2ccc(F)cc2)CC1 | > 100 µM | > 100 µM | > 100 µM | > 100 µM | > 100 µM | > 100 µM | > 100 µM | > 100 µM | > 100 µM | > 100 µM | > 100 µM | > 100 µM | 36.9 µM | > 100 µM | > 100 µM | > 100 µM | > 100 µM | > 100 µM | > 100 µM | 
FC(F)(F)c1ccc2c(-c3cc[nH]c3)ccnc2c1 | 75 µM | > 100 µM | > 100 µM | 56.4 µM | > 100 µM | 48.9 µM | > 100 µM | > 100 µM | > 100 µM | > 100 µM | 94.9 µM | > 100 µM | 95.2 µM | 46.2 µM | > 100 µM | 43.3 µM | > 100 µM | 33.8 µM | > 100 µM | 
Cc1n[nH]c(=O)n1C1CC1 | > 100 µM | > 100 µM | > 100 µM | > 100 µM | > 100 µM | > 100 µM | > 100 µM | > 100 µM | > 100 µM | > 100 µM | > 100 µM | > 100 µM | > 100 µM | > 100 µM | > 100 µM | > 100 µM | > 100 µM | > 100 µM | > 100 µM | 
O=C1c2ccccc2CC12Cc1cc3c(cc1C2)CCC3 | > 100 µM | > 100 µM | > 100 µM | > 100 µM | > 100 µM | > 100 µM | 94.1 µM | > 100 µM | > 100 µM | > 100 µM | > 100 µM | > 100 µM | > 100 µM | > 100 µM | > 100 µM | 35.8 µM | > 100 µM | > 100 µM | > 100 µM | 
COc1cc(/C=N/NC(=O)c2c(Cl)c(Cl)c(Cl)c(Cl)c2-c2nc3ccc(C(=O)c4ccccc4)cc3[nH]2)ccc1O | > 100 µM | > 100 µM | > 100 µM | > 100 µM | > 100 µM | > 100 µM | > 100 µM | > 100 µM | > 100 µM | 52 µM | > 100 µM | > 100 µM | 89.5 µM | > 100 µM | > 100 µM | > 100 µM | > 100 µM | > 100 µM | > 100 µM | 
Cc1c(-c2ccccc2)c(C#N)c2nnn(-c3ccc(Cl)cc3)c(=O)n12 | > 100 µM | > 100 µM | > 100 µM | > 100 µM | > 100 µM | > 100 µM | > 100 µM | > 100 µM | > 100 µM | > 100 µM | 26.7 µM | 50.9 µM | > 100 µM | > 100 µM | > 100 µM | 16 µM | > 100 µM | > 100 µM | 47.4 µM | 
O=C(CCN1CCCCC1)Nc1ccc2c(c1)C(=O)c1ccc(NC(=O)CCN3CCCCC3)cc1C2=O | 10.3 µM | 30.2 µM | 6.67 µM | 26.2 µM | 13.2 µM | 3.43 µM | 10.1 µM | 5.91 µM | 3.6 µM | 3.03 µM | 32.7 µM | 5.1 µM | 14.6 µM | 17.6 µM | 7.13 µM | 10.2 µM | 26.4 µM | 8 µM | 32.1 µM | 
N=S(c1ccccc1[N+](=O)[O-])c1ccccc1[N+](=O)[O-] | 9.72 µM and 15.6 µM | 11 µM and 20.8 µM | 8.51 µM and 10.8 µM | > 100 µM | 4.49 µM and 6.5 µM | 1.68 µM and 2.58 µM | 8.88 µM and 16.4 µM | 0.266 µM | 3.4 µM | 2.83 µM | 1.2 µM and 1.1 µM | 2.98 µM | 4.47 µM and 18.8 µM | 5.6 µM and 14.4 µM | 6.9 µM and 9.89 µM | 3.83 µM and 8.22 µM | 17 µM and 15.7 µM | 20.5 µM and 15.6 µM | 0.934 µM | 3.93 µM
CC(=O)Nc1ccc(S(=O)(=O)c2nnc(NC(C)=O)s2)cc1 | > 100 µM | > 100 µM | > 100 µM | > 100 µM | > 100 µM | > 100 µM | > 100 µM | > 100 µM | > 100 µM | > 100 µM | > 100 µM | > 100 µM | > 100 µM | > 100 µM | > 100 µM | > 100 µM | > 100 µM | > 100 µM | > 100 µM | 
C[C@]12CC[C@H]3[C@@H](CC=C4C[C@@H](O)CC[C@@]43C)[C@@H]1C/C(=C\c1ccncc1)[C@@H]2O | 61.3 µM | 49.1 µM | > 100 µM | > 100 µM | 73.5 µM | 61 µM | 40.6 µM | 59 µM | 99.2 µM | 54.4 µM | 57.7 µM | 43 µM | 48.9 µM | 38 µM | 45.9 µM | 21.1 µM | 79.6 µM | 62.8 µM | 42.5 µM | 
